Experimental data taken from BindingDB's records for doi:10.1016/S0960-894X(97)00161-3 (1997).

Tests used:
[1] = Compound was tested for inhibition against Creatine kinase(CK)
[2] = Compound was tested for inhibition against Creatine kinase (CK)

SMILES: N=C(CP(=O)(O)O)NCC(=O)O [Phosphocreatine analogue]
- Ki [1]: 5.7 mM

SMILES: N=C(CP(=O)(O)O)NCCC(=O)O [Phosphocreatine analogue]
- Ki [2]: 37 mM

SMILES: CN(CC(=O)O)C(=N)CP(=O)(O)O [Phosphocreatine analogue]
- Ki [2]: 1.4 mM
